Assay results as given in patent US20260151384A1, “ISOQUINOLINE DERIVATIVES AS PROTEIN DEGRADERS, E7 DEGRADERS, ANTIVIRALS, TUMOR THERAPEUTICS AND IMMUNE SUPPRESSIVES” (priority 2022, published 2026).
Several values for one entry are separate records, joined by “and”; a condition that tells them apart may be missing. Identical values can stand only once.

Tests used:
SARS-CoV-2 = assay: microbe, parasite or virus in culture; type: cell-based; details: for % Inhibition of SARV-CoV-2 virus activity: 1.25 μM, n4
HPV16 E7 protein = HPV16 E7 protein (Human papillomavirus type 16, UniProt P03129); type: cell-based; details: for % Dad: adjusted degradation, CHX steady state set to 100%, Table 2 screen
Sequence of HPV16 E7 protein (P03129 whole entry): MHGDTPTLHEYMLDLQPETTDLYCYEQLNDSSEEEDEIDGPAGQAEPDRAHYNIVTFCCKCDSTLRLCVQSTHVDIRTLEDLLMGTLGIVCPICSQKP

CaSki cells [1] = assay: Monolayer assay using Sulphorhodamine B (SRB) staining, CaSki; type: cell-based, human
[2] = tested on: human cervical carcinoma (CaSki) xenograft; assay: Antitumor efficacy on CaSki human cervical carcinoma xenograft model; type: in vivo, nude mice; details: for % TGI (Day 44), percentage tumor growth inhibition with respect to controls: OC246/OC974 2 mg/kg os
Protocol: The aim of this study was to assess the in vivo efficacy of OC246 and OC974 on a human cervical carcinoma (CaSki) xenograft model in nude mice. OC246 and OC974 were administered oral once daily for four times with three days off, for three cycles at 2 mg/kg/dose. Cisplatin (CDDP) was used as a reference compound with three weekly intravenous (q7dx3) administrations of 6 mg/kg.

CaSki cells [3] = assay: Cell cycle analysis using Propidium-Iodide staining (flow cytometry); type: cell-based, human; details: 48 hour incubation
Protocol: Propidium-Iodide (PI) DNA staining is performed to facilitate cell cycle analysis. For PI-DNA staining, fixed cells and eventually antibody-stained cells are resuspended in 450 μl of PBS (per 10^6 cells) and incubated with 100 μg/ml RNase (stock 1 mg/ml, in PBS) for 10 minutes at 37° C. Cells are then incubated with 5 μg/106 cells of PI (stock 1 mg/ml in PBS) for 10 minutes at room temperature. Samples are stored at 4° C. until CF analysis.
CaSki cells were incubated with various compounds and cell cycle distribution of the cells was assessed using Propidium-Iodide staining.
In order to analyze the cytostatic versus the cytotoxic effect of OC compounds, cell cycle profiles were analyzed in vitro after 48 hour incubations using Flow Cytometry as a read out. For this a cell cycle analysis from selected OC E7 degrader compounds was conducted in CaSki cells. Using 6 well plates, 1.5×10^5 cells were seeded for each well and grown over night at 37° C. 5% CO2. For analysis of the cell cycle behavior, cells were analyzed in the presence of propidium Iodide (PI^−) by flow cytometry (FC). Briefly, cells were detached by trypsin digestion, all supernatants were included in the analysis, and fixed with 70% ice cold ethanol and stored at 4° C. until FC analysis using P1^− staining (1 mg/ml). At least 7000 events were acquired for each sample.

Structure (SMILES): c1c2c(cc3c1OCO3)-c1cc3ccc4c(c3c[n+]1CC2)OCO4 [Coptisin]
- % Inhibition of SARV-CoV-2 virus activity (SARS-CoV-2): 98.97%

Structure (SMILES): Cc1ccc(CN2C(=O)c3ccccc3C(C(=O)NCc3ccc(C(C)C)cc3)C2c2ccc(Cl)cc2)cc1 (stereo not drawn) [OC254]
- % Dad (HPV16 E7 protein): 16%

Structure (SMILES): CCNC(=O)N1CCN(C(=O)C2c3ccccc3C(=O)N(Cc3ccc(C)cc3)C2c2ccc(Cl)cc2)CC1 (stereo not drawn) [OC257]
- % Dad (HPV16 E7 protein): 12%

Structure (SMILES): CS(=O)(=O)O.Cc1c(O)cccc1C(=O)N[C@@H](CSc1ccccc1)[C@H](O)CN1C[C@H]2CCCC[C@H]2C[C@H]1C(=O)NC(C)(C)C [Neifinavir-Mesylat]
- % Inhibition of SARV-CoV-2 virus activity (SARS-CoV-2): 9.49%

Structure (SMILES): C[C@@H]1C[C@@H]([C@H](O)CC2CC(=O)NC(=O)C2)C(=O)[C@@H](C)C1 [CHX, Cycloheximide, reference compound]
- % Dab (HPV16 E7 protein; CaSki cells, 10 μM, four hours, CHX set to 100%): 100%
- Measured MFI (mean fluorescence intensity) of E7 signal (HPV16 E7 protein; CaSki cells, 10 μM, four hours, vehicle T 8.06): 1.71

Structure (SMILES): COc1ccc2c(c1)C(=O)N(CC1CCN(C)CC1)[C@@H](c1ccc(C(F)(F)F)cc1)[C@@H]2C(=O)Nc1cccc(N2CCN(C)CC2)c1 (relative stereo) [VS977, rel-(3R,4R)-7-methoxy-N-(3-(4-methylpiperazin-1-yl)phenyl)-2-((1-methylpiperidin-4-yl)methyl)-1-oxo-3-(4-(trifluoromethyl)phenyl)-1,2,3,4-tetrahydroisoquinoline-4-carboxamide]
- SRB anti-neoplastic effect compared among VS035, VS977, VS978, OC969 (CaSki cells [1]; CaSki, Test 21, FIG. 12): strongest effect

Structure (SMILES): CN1CCC(CN2C(=O)c3ccccc3[C@@H](C(=O)Nc3cccc(N4CCN(C)CC4)c3)[C@@H]2c2ccc(C(F)(F)F)cc2)CC1 (relative stereo) [OC974, rel-(3R,4R)-N-(3-(4-methylpiperazin-1-yl)phenyl)-2-((1-methylpiperidin-4-yl)methyl)-1-oxo-3-(4-(trifluoromethyl)phenyl)-1,2,3,4-tetrahydroisoquinoline-4-carboxamide]
- Tumor Volume Day 44 (mm^3 ± SD) ([2]; OC246/OC974 2 mg/kg os daily 4 x week 3 cycles, CDDP 6 mg/kg i.v. q7dx3, n = 7, control 1099 ± 503): 307 ± 171 mm^3
- % TGI (Day 44), percentage tumor growth inhibition with respect to controls ([2]; CDDP 6 mg/kg i.v. q7dx3): 63.9%
- Δ% Body Weight ([2]; between first day of treatment (day 20) and Day 44, control +4.9): +1.1%
- Δ% on Day 44 ([2]; same schedules, control 100): 23%
- EC50 (CaSki cells [1]; Homo sapiens, Ca-Ski, read-out: EC50 mean [nM]): 1550 nM
- G1/5 μM (CaSki cells [3]; 5 μM, % cells in G1, no treatment 53.3): 49.6%
- G2/5 μM (CaSki cells [3]; 5 μM, % cells in G2, no treatment 15.6): 9.9%
- A*/5 μM (Apoptosis as measured from total SUB G1 content) (CaSki cells [3]; 5 μM, no treatment 15.0): 19.5%
- G1/10 μM (CaSki cells [3]; 10 μM, % cells in G1, no treatment 53.3): 8.7%
- G2/10 μM (CaSki cells [3]; 10 μM, % cells in G2, no treatment 15.6): 0.8%
- A*/10 μM (Apoptosis as measured from total SUB G1 content) (CaSki cells [3]; 10 μM, no treatment 15.0): 82.9% and 81.8%
- inhibition at 1.25 µM (SARS-CoV-2; Severe acute respiratory syndrome coronavirus 2, n4, read-out: % Inhibition of SARV-CoV-2 virus activity): 54.3%

Structure (SMILES): Cc1ccc(CN2C(=O)c3ccccc3C(C(=O)NCc3ccc(Cl)cc3)C2c2ccc(Cl)cc2)cc1 (stereo not drawn) [OC253]
- % Dad (HPV16 E7 protein): 0%

Structure (SMILES): Nc1ccc(-c2ccc3ncc4ccc(=O)n(-c5cccc(C(F)(F)F)c5)c4c3c2)cn1 [Torin2]
- % Inhibition of SARV-CoV-2 virus activity (SARS-CoV-2): 1.46%

Structure (SMILES): [NH2][Pt]([NH2])([Cl])[Cl] [CDDP, Cisplatin, reference compound]
- % TGI (Day 44), percentage tumor growth inhibition with respect to controls ([2]; CDDP 6 mg/kg i.v. q7dx3): 79.2%

Structure (SMILES): COc1ccc2cc1Oc1ccc(cc1)C[C@H]1c3c(cc4c(c3Oc3cc5c(cc3OC)CCN(C)[C@@H]5C2)OCO4)CCN1C [Cepharantin]
- % Inhibition of SARV-CoV-2 virus activity (SARS-CoV-2): 2.32%

Structure (SMILES): CCC(=O)N1CCN(c2ccc(-n3c(=O)ccc4cnc5ccc(-c6cnc7ccccc7c6)cc5c43)cc2C(F)(F)F)CC1 [Torin1]
- % Inhibition of SARV-CoV-2 virus activity (SARS-CoV-2): 7.00%
